biological target: T1, human APJ receptor (Homo sapiens, UniProt P35414); assay: Intracellular cAMP accumulation assay (APJ hcAMP, HTRF); format: cell-based; conditions: HEK293 cells stably expressing human APJ receptor; inhibition of forskolin-mediated cAMP production; read-out: APJ cAMP Potency range
T1 construct: expressed in transfected cells; host or cells: HEK293
T1 sequence (P35414 1-380): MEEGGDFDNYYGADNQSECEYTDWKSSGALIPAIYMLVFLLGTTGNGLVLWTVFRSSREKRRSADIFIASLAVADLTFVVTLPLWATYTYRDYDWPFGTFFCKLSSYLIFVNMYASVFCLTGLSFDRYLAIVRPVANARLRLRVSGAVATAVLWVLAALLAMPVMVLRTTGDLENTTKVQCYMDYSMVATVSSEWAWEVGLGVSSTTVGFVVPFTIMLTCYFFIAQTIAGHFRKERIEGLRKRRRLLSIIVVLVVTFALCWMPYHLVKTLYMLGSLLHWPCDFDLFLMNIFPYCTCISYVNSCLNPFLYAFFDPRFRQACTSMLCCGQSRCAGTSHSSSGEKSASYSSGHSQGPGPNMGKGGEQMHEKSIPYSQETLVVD
Method in brief: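 Inhibition of forskolin (2 μM)-driven cAMP, with […], measured by HTRF after 30 min room-temperature compound exposure of stably transfected HEK293 cells. cAMP read from a standard curve; variable-slope fit gives EC50, and maximal inhibition is normalised to (Pyr1)apelin-13 as 100%.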

Row | EC50 [nM] | SMILES
1 | 0.01 to 10 | CC[C@@H](c1cc(F)cc(F)c1)n1c(CCC2CC2)nc(=O)c(Cc2ccc(-c3cccnc3C)cc2)c1O [Example 109, 2-(2-cyclopropylethyl)-1-[(1S)-1-(3,5-difluorophenyl)propyl]-6-hydroxy-5-{[4-(2-methylpyridin-3-yl)phenyl]methyl}-1,4-dihydropyrimidin-4-one]
2 | 0.01 to 10 | CC[C@@H](c1cc(F)cc(F)c1)n1c(CCC2CC2)nc(=O)c(Cc2ccc(-c3ccncc3C)cc2)c1O [Example 110, 2-(2-cyclopropylethyl)-1-[(1S)-1-(3,5-difluorophenyl)propyl]-6-hydroxy-5-{[4-(3-methylpyridin-4-yl)phenyl]methyl}-1,4-dihydropyrimidin-4-one]
3 | 0.01 to 10 | CC[C@@H](c1cc(F)cc(F)c1)n1c(COC(C)C)nc(=O)c(Cc2ccc(-c3cccnc3C)cc2)c1O [Example 111, 1-[(1S)-1-(3,5-difluorophenyl)propyl]-6-hydroxy-5-{[4-(2-methylpyridin-3-yl)phenyl]methyl}-2-[(propan-2-yloxy)methyl]-1,4-dihydropyrimidin-4-one]
4 | 0.01 to 10 | CC[C@@H](c1cc(F)cc(F)c1)n1c(COC(C)C)nc(=O)c(Cc2ccc(-c3ccc(F)nc3C)cc2)c1O [Example 112, 1-[(1S)-1-(3,5-difluorophenyl)propyl]-5-{[4-(6-fluoro-2-methylpyridin-3-yl)phenyl]methyl}-6-hydroxy-2-[(propan-2-yloxy)methyl]-1,4-dihydropyrimidin-4-one]
5 | 0.01 to 10 | CC[C@@H](c1cc(F)cc(F)c1)n1c(CCC2CC2)nc(=O)c(Cc2ccc(-c3ccnc(F)c3C)cc2)c1O [Example 113, 2-(2-cyclopropylethyl)-1-[(1S)-1-(3,5-difluorophenyl)propyl]-5-{[4-(2-fluoro-3-methylpyridin-4-yl)phenyl]methyl}-6-hydroxy-1,4-dihydropyrimidin-4-one]
6 | 0.01 to 10 | CC[C@@H](c1cc(F)cc(F)c1)n1c(COC(C)C)nc(=O)c(Cc2ccc(-c3ccncc3C)cc2)c1O [Example 114, 1-[(1S)-1-(3,5-difluorophenyl)propyl]-6-hydroxy-5-{[4-(3-methylpyridin-4-yl)phenyl]methyl}-2-[(propan-2-yloxy)methyl]-1,4-dihydropyrimidin-4-one]
7 | 0.01 to 10 | Cc1ncccc1-c1ccc(Cc2c(O)n([C@H](c3cc(F)cc(F)c3)C(C)C)c(COC(C)C)nc2=O)cc1 [Example 115, 1-[(1S)-1-(3,5-difluorophenyl)-2-methylpropyl]-6-hydroxy-5-{[4-(2-methylpyridin-3-yl)phenyl]methyl}-2-[(propan-2-yloxy)methyl]-1,4-dihydropyrimidin-4-one]
8 | 0.01 to 10 | CC(C)[C@@H](c1cc(F)cc(F)c1)n1c(CCC2CC2)nc(=O)c(Cc2ccc(-c3ccc(F)cc3C(N)=O)cc2)c1O [Example 117, 4′-{[2-(2-cyclopropylethyl)-1-[(1S)-1-(3,5-difluorophenyl)-2-methylpropyl]-6-hydroxy-4-oxo-1,4-dihydropyrimidin-5-yl]methyl}-4-fluoro-[1,1′-biphenyl]-2-carboxamide]
9 | 0.01 to 10 | CCOCc1nc(=O)c(Cc2ccc(-c3cccnc3C)cc2)c(O)n1[C@@H](COC)c1cc(F)cc(F)c1 [Example 123, 1-[(1R)-1-(3,5-difluorophenyl)-2-methoxyethyl]-2-(ethoxymethyl)-6-hydroxy-5-{[4-(2-methylpyridin-3-yl)phenyl]methyl}-1,4-dihydropyrimidin-4-one]
10 | 10 to 100 | CCCCc1nc(=O)c(Cc2cccc(-c3cccnc3C)c2)c(O)n1[C@@H](CC)c1cc(F)cc(F)c1 [Example 129, 2-butyl-1-[(1S)-1-(3,5-difluorophenyl)propyl]-6-hydroxy-5-{[3-(2-methylpyridin-3-yl)phenyl]methyl}-1,4-dihydropyrimidin-4-one]
11 | 0.01 to 10 | CCCCc1nc(=O)c(Cc2cccc(-c3ccc(F)nc3C)c2)c(O)n1[C@@H](CC)c1cc(F)cc(F)c1 [Example 130, 2-butyl-1-[(1S)-1-(3,5-difluorophenyl)propyl]-5-{[3-(6-fluoro-2-methylpyridin-3-yl)phenyl]methyl}-6-hydroxy-1,4-dihydropyrimidin-4-one]
12 | 0.01 to 10 | CC[C@@H](c1cc(F)cc(F)c1)n1c(-c2ccn(CC)n2)nc(=O)c(Cc2ccc(-c3cccnc3C)cc2)c1O [Example 133, 1-[(1S)-1-(3,5-difluorophenyl)propyl]-2-(1-ethyl-1H-pyrazol-3-yl)-6-hydroxy-5-{[4-(2-methylpyridin-3-yl)phenyl]methyl}-1,4-dihydropyrimidin-4-one]

Continued, molecule first:

Row | SMILES | EC50 [nM]
13 | CC(C)OCc1nc(=O)c(Cc2ccc(-c3ccc(F)cc3C(N)=O)cc2)c(O)n1[C@H](c1cc(F)cc(F)c1)C(C)C [Example 116, 4′-({1-[(1S)-1-(3,5-difluorophenyl)-2-methylpropyl]-6-hydroxy-4-oxo-2-[(propan-2-yloxy)methyl]-1,4-dihydropyrimidin-5-yl}methyl)-4-fluoro-[1,1′-biphenyl]-2-carboxamide] | 0.01 to 10
14 | CC[C@@H](c1ccccc1)n1c(-c2nc(C)cs2)nc(=O)c(Cc2ccc(-c3ccnc(F)c3C)c(F)c2)c1O [Example 118, 5-{[3-fluoro-4-(2-fluoro-3-methylpyridin-4-yl)phenyl]methyl}-6-hydroxy-2-(4-methyl-1,3-thiazol-2-yl)-1-[(1S)-1-phenylpropyl]-1,4-dihydropyrimidin-4-one] | 0.01 to 10
15 | CC[C@@H](c1ccccc1)n1c(-c2nc(C)cs2)nc(=O)c(Cc2ccc(-c3cccn(C)c3=O)c(F)c2)c1O [Example 119, 5-{[3-fluoro-4-(1-methyl-2-oxo-1,2-dihydropyridin-3-yl)phenyl]methyl}-6-hydroxy-2-(4-methyl-1,3-thiazol-2-yl)-1-[(1S)-1-phenylpropyl]-1,4-dihydropyrimidin-4-one] | 0.01 to 10
16 | CC[C@@H](c1ccccc1)n1c(-c2nc(C)cs2)nc(=O)c(Cc2ccc(-c3ccc(F)cc3C(N)=O)c(F)c2)c1O [Example 120, 2′,4-difluoro-4′-{[6-hydroxy-2-(4-methyl-1,3-thiazol-2-yl)-4-oxo-1-[(1S)-1-phenylpropyl]-1,4-dihydropyrimidin-5-yl]methyl}-[1,1′-biphenyl]-2-carboxamide] | 0.01 to 10
17 | Cc1ncccc1-c1ccc(Cc2c(O)n([C@H](c3cc(F)cc(C#N)c3)C(C)C)c(COC(C)C)nc2=O)cc1 [Example 121, 3-fluoro-5-[(1S)-1-(6-hydroxy-5-{[4-(2-methylpyridin-3-yl)phenyl]methyl}-4-oxo-2-[(propan-2-yloxy)methyl]-1,4-dihydropyrimidin-1-yl)-2-methylpropyl]benzonitrile] | 10 to 100
18 | CCOCc1nc(=O)c(Cc2ccc(-c3ccncc3C)cc2)c(O)n1[C@@H](COC)c1cc(F)cc(F)c1 [Example 122, 1-[(1R)-1-(3,5-difluorophenyl)-2-methoxyethyl]-2-(ethoxymethyl)-6-hydroxy-5-{[4-(3-methylpyridin-4-yl)phenyl]methyl}-1,4-dihydropyrimidin-4-one] | 0.01 to 10
19 | CCOCc1nc(=O)c(Cc2ccc(-c3ccc(F)nc3C)cc2)c(O)n1[C@@H](COC)c1cc(F)cc(F)c1 [Example 124, 1-[(1R)-1-(3,5-difluorophenyl)-2-methoxyethyl]-2-(ethoxymethyl)-5-{[4-(6-fluoro-2-methylpyridin-3-yl)phenyl]methyl}-6-hydroxy-1,4-dihydropyrimidin-4-one] | 0.01 to 10
20 | CCOCc1nc(=O)c(Cc2ccc(-c3ccc(F)nc3)cc2)c(O)n1[C@@H](COC)c1cc(F)cc(F)c1 [Example 125, 1-[(1R)-1-(3,5-difluorophenyl)-2-methoxyethyl]-2-(ethoxymethyl)-5-{[4-(6-fluoropyridin-3-yl)phenyl]methyl}-6-hydroxy-1,4-dihydropyrimidin-4-one] | 10 to 100
21 | CCOCc1nc(=O)c(Cc2ccc(-c3ccnc(F)c3C)cc2)c(O)n1[C@@H](COC)c1cc(F)cc(F)c1 [Example 126, 1-[(1R)-1-(3,5-difluorophenyl)-2-methoxyethyl]-2-(ethoxymethyl)-5-{[4-(2-fluoro-3-methylpyridin-4-yl)phenyl]methyl}-6-hydroxy-1,4-dihydropyrimidin-4-one] | 0.01 to 10
22 | CCCCc1nc(=O)c(Cc2cccc(-c3ccncc3C)c2)c(O)n1[C@@H](CC)c1cc(F)cc(F)c1 [Example 127, 2-butyl-1-[(1S)-1-(3,5-difluorophenyl)propyl]-6-hydroxy-5-{[3-(3-methylpyridin-4-yl)phenyl]methyl}-1,4-dihydropyrimidin-4-one] | 10 to 100
23 | CCCCc1nc(=O)c(Cc2cccc(-c3ccnc(F)c3C)c2)c(O)n1[C@@H](CC)c1cc(F)cc(F)c1 [Example 128, 2-butyl-1-[(1S)-1-(3,5-difluorophenyl)propyl]-5-{[3-(2-fluoro-3-methylpyridin-4-yl)phenyl]methyl}-6-hydroxy-1,4-dihydropyrimidin-4-one] | 10 to 100
24 | CCCCc1nc(=O)c(Cc2cccc(-c3ccc(F)cc3C(N)=O)c2)c(O)n1[C@@H](CC)c1cc(F)cc(F)c1 [Example 131, 3′-({2-butyl-1-[(1S)-1-(3,5-difluorophenyl)propyl]-6-hydroxy-4-oxo-1,4-dihydropyrimidin-5-yl}methyl)-4-fluoro-[1,1′-biphenyl]-2-carboxamide] | 10 to 100
25 | CC[C@@H](c1cc(F)cc(F)c1)n1c(-c2ccn(CC)n2)nc(=O)c(Cc2ccc(-c3ccnc(F)c3C)cc2)c1O [Example 132, 1-[(1S)-1-(3,5-difluorophenyl)propyl]-2-(1-ethyl-1H-pyrazol-3-yl)-5-{[4-(2-fluoro-3-methylpyridin-4-yl)phenyl]methyl}-6-hydroxy-1,4-dihydropyrimidin-4-one] | 0.01 to 10
